Assay results from patent publication US6610665B1 (Smithkline Beecham Corporation, priority 1998, dated 2003).
Counter-ions that a name gives are not always drawn.

What was measured:
Type in all cases: cell-based
Settings in all cases: ratio to NECA
[1] = molecular target: T1, adenosine 3 receptor (Homo sapiens, UniProt P0DMS8); assay: Agonist activity, CHO cells transfected with human adenosine receptor and CRE-SPAP reporter; forskolin-enhanced cAMP (A3)
T1 construct: expressed in transfected cells; host or cells: CHO cells
T1 sequence (P0DMS8 1-318): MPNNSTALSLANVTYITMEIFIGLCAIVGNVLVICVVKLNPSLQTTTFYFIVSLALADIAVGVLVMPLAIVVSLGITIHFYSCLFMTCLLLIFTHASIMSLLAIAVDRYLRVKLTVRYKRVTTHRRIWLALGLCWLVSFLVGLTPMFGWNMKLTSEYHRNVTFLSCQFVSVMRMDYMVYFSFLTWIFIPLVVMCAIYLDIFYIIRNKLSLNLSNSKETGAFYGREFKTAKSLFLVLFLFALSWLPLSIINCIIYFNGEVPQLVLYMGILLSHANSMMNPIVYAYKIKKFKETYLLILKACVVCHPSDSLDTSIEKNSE
Protocol: (§1) (1) Agonist activity against adenosine 2a, adenosine 1 and adenosine 3 receptor subtypes.
(§2) Agonist selectivity of compounds against other human adenosine receptors is determined using Chinese hamster ovary (CHO) cells transfected with the gene for the relevant human adenosine receptor following a method based on that of Castanon and Spevak, 1994. The CHO cells are also transfected with cyclic AMP response elements promoting the gene for secreted placental alkaline phosphatase (SPAP) (Wood, 1995). The effect of test compounds may be determined by their effects on basal levels of CAMP (A2a) or on forskolin-enhanced cAMP (A1 and A3) as reflected by changes in levels of SPAP. EC50 values for compounds may then be determined as a ratio to that of the non-selective agonist N-ethyl carboxamide adenosine (NECA).

[2] = molecular target: T2, adenosine 1 receptor (Homo sapiens, UniProt P30542); assay: Agonist activity, CHO cells transfected with human adenosine receptor and CRE-SPAP reporter; forskolin-enhanced cAMP (A1)
T2 construct: expressed in transfected cells; host or cells: CHO cells
T2 sequence (P30542 1-326): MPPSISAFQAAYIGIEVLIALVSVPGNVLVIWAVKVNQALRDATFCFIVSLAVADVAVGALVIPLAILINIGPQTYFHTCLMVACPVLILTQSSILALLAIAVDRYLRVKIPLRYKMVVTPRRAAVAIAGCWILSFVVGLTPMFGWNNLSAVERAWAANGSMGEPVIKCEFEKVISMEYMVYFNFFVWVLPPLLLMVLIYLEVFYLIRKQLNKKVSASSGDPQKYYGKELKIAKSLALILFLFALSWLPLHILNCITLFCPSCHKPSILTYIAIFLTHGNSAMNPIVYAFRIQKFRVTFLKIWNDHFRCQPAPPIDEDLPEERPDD
Protocol: as §1, §2

[3] = molecular target: T3, adenosine 2a receptor (Homo sapiens, UniProt P29274); assay: Agonist activity, CHO cells transfected with human adenosine receptor and CRE-SPAP reporter; basal cAMP (A2a)
T3 construct: expressed in transfected cells; host or cells: CHO cells
T3 sequence (P29274 whole entry): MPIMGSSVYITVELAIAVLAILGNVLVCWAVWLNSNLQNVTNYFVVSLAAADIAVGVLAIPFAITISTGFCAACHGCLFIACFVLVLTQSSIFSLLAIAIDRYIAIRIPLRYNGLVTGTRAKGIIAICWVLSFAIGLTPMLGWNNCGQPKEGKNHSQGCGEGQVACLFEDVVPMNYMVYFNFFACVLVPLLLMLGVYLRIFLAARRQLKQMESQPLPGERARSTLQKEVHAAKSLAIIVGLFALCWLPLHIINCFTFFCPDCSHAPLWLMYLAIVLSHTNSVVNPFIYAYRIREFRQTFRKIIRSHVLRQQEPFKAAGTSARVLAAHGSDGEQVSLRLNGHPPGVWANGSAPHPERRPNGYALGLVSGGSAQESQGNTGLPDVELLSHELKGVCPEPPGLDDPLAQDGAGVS
Protocol: as §1, §2

[4] = * data are minimum values since preparation was found, after testing, to contain an inactive impurity

| Structure (SMILES) | A3, EC50 as a ratio of that of NECA [1, 4] | A1, EC50 as a ratio of that of NECA [2, 4] | A2a, EC50 as a ratio of that of NECA [3, 4] | A3, EC50 as a ratio of that of NECA ([1]; CHO cells, SPAP readout) | A1, EC50 as a ratio of that of NECA ([2]; CHO cells, SPAP readout) | A2a, EC50 as a ratio of that of NECA ([3]; CHO cells, SPAP readout) |
| --- | --- | --- | --- | --- | --- | --- |
| CCC(CC)Nc1nc(NCCN2CCCCC2)nc2c1ncn2[C@@H]1O[C@H](c2nc(C)no2)[C@@H](O)[C@H]1O.O=CO [Example 18, (2R,3R,4S,5S)-2-[6-(1-Ethyl-propylamino)-2-(2-piperidin-1-yl-ethylamino)-purin-9-yl]-5-(3-methyl-[1,2,4]oxadiazol-5-yl)-tetrahydro-furan-3,4-diol formate] | >314 | >6244 | 8.16 |  |  |  |
| CCc1noc([C@H]2O[C@@H](n3cnc4c(NCC(c5ccccc5)c5ccccc5)nc(Nc5ccc(F)cc5)nc43)[C@H](O)[C@@H]2O)n1.O=CO [Example 44, (2R,3R,4S,5S)-2-[6-(2,2-Diphenyl-ethylamino)-2-(4-fluoro-phenylamino)-purin-9-yl]-5-(3-ethyl-[1,2,4]oxadiazol-5-yl)-tetrahydro-furan-3,4-diol formate] |  |  |  | >165 | >6131 | 94.39 |
| CCC(CC)Nc1nc(NCCc2cn(C)cn2)nc2c1ncn2[C@@H]1O[C@H](c2nc(C)no2)[C@@H](O)[C@H]1O.O=CO [Example 14, (2R,3R,4S,5S)-2-{6-(1-Ethyl-propylamino)-2-[2-(1-methyl-1H-imidazol-4-yl)-ethylamino]-purin-9-yl}-5-(3-methyl-[1,2,4]oxadiazol-5-yl)-tetrahydro-furan-3,4-diol formate] |  |  |  | >239 | >4587 | 0.66 |
| Cc1noc([C@H]2O[C@@H](n3cnc4c(NCC(c5ccccc5)c5ccccc5)nc(NCCc5cn(C)cn5)nc43)[C@H](O)[C@@H]2O)n1.O=C(O)C(F)(F)F.O=C(O)C(F)(F)F [Example 1] |  |  |  | >197 | 1306 | 1.19 |
| CCc1noc([C@H]2O[C@@H](n3cnc4c(NC(CC)CC)nc(N[C@H]5CC[C@H](N)CC5)nc43)[C@H](O)[C@@H]2O)n1.O=CO [Example 29, (2R,3R,4S,5S)-2-[2-(trans-4-Amino-cyclohexylamino)-6-(1-ethyl-propylamino)-purin-9-yl]-5-(3-ethyl-[1,2,4]oxadiazol-5-yl)-tetrahydro-furan-3,4-diol formate] | >117 | 989.5 | 8.92 |  |  |  |
| Cc1noc(C2OC(n3cnc4c(NCC(c5ccccc5)c5ccccc5)nc(NCCc5c[nH]cn5)nc43)C(O)C2O)n1 [Example 34, (2R,3R,4S,5S)-2-{6-(2,2-Diphenyl-ethylamino)-2-[2-(1H-imidazol-4-yl)-ethylamino]-purin-9-yl}-5-(3-methyl-[1,2,4oxadiazol-5-yl)-tetrahydro-furan-3,4-diol formate] | 231.1 | 3270.8 | 8.31 |  |  |  |
| CCc1noc(C2OC(n3cnc4c(N)nc(NCCc5cn(C)cn5)nc43)C(O)C2O)n1 [Example 10, (2R,3R,4S,5S)-2-{6-Amino-2-[2-(1-methyl-1H-imidazol-4-yl)-ethylamino]-purin-9-yl}-5-(3-ethyl-1,2,4]oxadiazol-5-yl)-tetrahydro-furan-3,4-diol diformate] | >269 | 3449.6 | 7.66 |  |  |  |
| CCC(CC)Nc1nc(NC(CO)C(C)C)nc2c1ncn2C1OC(c2nc(C)no2)C(O)C1O [Example 28, (2R,3R,4S,5S)-2-[6-(1-Ethyl-propylamino)-2-(1S-hydroxymethyl-2-methyl-propylamino)-purin-9-yl]-5-(3-methyl-[1,2,4]oxadiazol-5-yl)-tetrahydro-furan-3,4-diol formate] | >284 | >5263 | 5.49 |  |  |  |
| CCc1noc([C@H]2O[C@@H](n3cnc4c(NCCc5ccccc5)nc(NCCc5cn(C)cn5)nc43)[C@H](O)[C@@H]2O)n1.O=CO.O=CO [Example 46] |  |  |  | >165 | 3560.13 | 0.90 |
| Cc1noc([C@H]2O[C@@H](n3cnc4c(N)nc(NC5CCCC5)nc43)[C@H](O)[C@@H]2O)n1.O=CO [Example 11, (2R,3R,4S,5S)-2-(6-Amino-2-cyclopentylamino-purin-9-yl)-5-(3-methyl-[1,2,4]oxadiazol-5-yl)-tetrahydro-furan-3,4-diol formate] | >266 | 145.5 | 6.66 |  |  |  |
| CCC(CC)Nc1nc(NCCN2CCCCC2)nc2c1ncn2C1OC(c2nc(C3CC3)no2)C(O)C1O [Example 35, (2S,3S,4R,5R)-2-(3-Cyclopropyl-[1,2,4]oxadiazol-5-yl)-5-[6-(1-ethyl-propylamino)-2-(2-piperidin-1-yl-ethylamino)-purin-9-yl]-tetrahydro-furan-3,4-diolldiformate] |  |  |  | >194 | 912.1 | 7.89 |
| CCc1noc(C2OC(n3cnc4c(NCC(c5ccccc5)c5ccccc5)nc(NC5CCN(Cc6ccccc6)C5)nc43)C(O)C2O)n1 [Example 45, (2R,3R,4S,5S)-2-[2-(1-Benzyl-pyrrolidin-3S-ylamino)-6-(2,2-diphenyl-ethylamino)-purin-9-yl]-5-(3-ethyl-[1,2,4]oxadiazol-5-yl)-tetrahydro-furan-3,4-diol diformate] |  |  |  | >165 | >3738.84 | 29.82 |
| Cc1noc([C@H]2O[C@@H](n3cnc4c(N)nc(NCCc5ccccc5)nc43)[C@H](O)[C@@H]2O)n1.O=C(O)C(F)(F)F [Example 15, (2R,3R,4S,5S)-2-(6-Amino-2-phenethylamino-purin-9-yl)-5-(3-methyl-[1,2,4]oxadiazol-5-yl)-tetrahydro-furan-3,4-diol trifluoroacetate] |  |  |  | >130 | >5511 | 2.29 |
| CCC(CC)Nc1nc(N[C@H]2CC[C@H](N)CC2)nc2c1ncn2[C@@H]1O[C@H](c2nc(C)no2)[C@@H](O)[C@H]1O.O=CO [Example 16, (2R,3R,4S,5S)-2-[2-(trans-4-Amino-cyclohexylamino)-6-(1-ethyl-propylamino)-purin-9-yl]-5-(3-methyl-[1,2,4]oxadiazol-5-yl)tetrahydro-furan-3,4-diol formate] | >362 | >6244 | 11.87 |  |  |  |
| CCc1noc([C@H]2O[C@@H](n3cnc4c(NC(CC)CC)nc(NCCc5cn(C)cn5)nc43)[C@H](O)[C@@H]2O)n1.O=CO [Example 13, (2S,3S,4R,5R)-2-(3-Ethyl-[1,2,4]oxadiazol-5-yl)-5-(6-(1-ethyl-propylamino)-2-[2-(1-methyl-1H-imidazol-4-yl)-ethylamino]-purin-9-yl}tetrahydro-furan-3,4-diol formate] |  |  |  | >289 | >=4370 | 0.61 |
| CCc1noc([C@H]2O[C@@H](n3cnc4c(NCC(c5ccccc5)c5ccccc5)nc(NCCN5CCCCC5)nc43)[C@H](O)[C@@H]2O)n1.O=CO [Example 32, (2R,3R,4S,5S)-2-[6-(2,2-Diphenyl-ethylamino)-2-(2-piperidin-1-yl-ethylamino)-purin-9-yl]-5-(3-ethyl-[1,2,4]oxadiazol-5-yl)-tetrahydro-furan-3,4-diol formate] |  |  |  | >258 | 7521 | 31.4 |
| CCc1noc(C2OC(n3cnc4c(NCC(c5ccccc5)c5ccccc5)nc(NCCN5CCCC5)nc43)C(O)C2O)n1.O=CO.O=CO (stereo not drawn) [Example 39] |  |  |  | >130 | 4505.4 | 30.21 |
| CCC(CC)Nc1nc(N[C@H]2CCC[C@@H]2O)nc2c1ncn2[C@@H]1O[C@H](c2nc(C)no2)[C@@H](O)[C@H]1O.O=CO [Example 24, (2R,3R,4S,5S)-2-[6-(1-Ethyl-propylamino)-2-(2S-hydroxy-cyclopent-(S)-ylamino)-purin-9-yl]-5-(3-methyl-[1,2,4]oxadiazol-5-yl)-tetrahydro-furan-3,4-diol formate] |  |  |  | >284 | >5264 | 18.13 |
